Measured values: patent publication US20050197338A1, “Substituted pyrazole urea compounds for the treatment of inflammation” (priority 2003, published 2005)

Target: T1, human IKK-2 (rhIKK-2 homodimer) (Homo sapiens, UniProt O14920)
T1 construct: FLAG (DYKDDDDKD) (C); made in house; host or cells: insect cells (baculovirus, pFastBac)
T1 sequence (O14920 1-756): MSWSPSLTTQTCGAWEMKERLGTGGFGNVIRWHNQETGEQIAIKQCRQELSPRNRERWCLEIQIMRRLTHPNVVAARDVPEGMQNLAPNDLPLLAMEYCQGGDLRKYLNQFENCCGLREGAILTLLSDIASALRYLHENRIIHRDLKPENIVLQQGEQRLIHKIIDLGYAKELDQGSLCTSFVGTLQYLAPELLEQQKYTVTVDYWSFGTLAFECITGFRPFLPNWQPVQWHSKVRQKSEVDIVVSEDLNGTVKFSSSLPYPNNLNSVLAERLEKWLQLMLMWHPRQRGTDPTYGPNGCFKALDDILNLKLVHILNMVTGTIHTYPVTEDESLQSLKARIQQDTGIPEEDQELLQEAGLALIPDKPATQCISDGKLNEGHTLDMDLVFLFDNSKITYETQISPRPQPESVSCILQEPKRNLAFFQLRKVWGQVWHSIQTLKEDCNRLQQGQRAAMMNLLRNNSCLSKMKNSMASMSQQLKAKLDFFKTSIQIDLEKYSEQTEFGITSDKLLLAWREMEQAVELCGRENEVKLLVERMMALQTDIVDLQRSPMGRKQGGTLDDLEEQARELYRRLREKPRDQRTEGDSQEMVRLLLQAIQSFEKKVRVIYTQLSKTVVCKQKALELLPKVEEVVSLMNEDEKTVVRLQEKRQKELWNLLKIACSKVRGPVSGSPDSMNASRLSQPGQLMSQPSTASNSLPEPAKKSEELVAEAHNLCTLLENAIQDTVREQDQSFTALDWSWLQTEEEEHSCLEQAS
Assay: IKK-2 Resin Enzyme Assay (Human IKK-2 Enzyme Assay)
Type: biochemical
Conditions: human IKK-2, resin enzyme assay; read-out: IC50 (μM) hIKK-2
Outline: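 C-terminally FLAG-tagged human IKK-2 homodimer, baculovirus-expressed in insect cells and anti-FLAG purified. Reaction mix: 5 μM biotinylated IκBα peptide (Ser32/Ser36 region), 1 μM ATP with [γ-33P]ATP, 2 mM MgCl2, 2 mM MnCl2, 10 mM NaF, 1 mM DTT, 25 mM HEPES pH 7.6. Incubated 30 min at 25 °C; IC50 derived.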

IC50	Structure (SMILES)
5.09 µM	Cc1cc(-c2cccc(O)c2)ccc1-n1cc(NC(N)=O)c(C(N)=O)n1 [Example 5, 4-[(aminocarbonyl)amino]-1-(3′-hydroxy-3-methyl-1,1′-biphenyl-4-yl)-1H-pyrazole-3-carboxamide]
2.87 µM	Cc1cc(I)ccc1-n1cc(NC(N)=O)c(C(N)=O)n1 [Example 4, 1-(4-iodo-2-methyl-phenyl)-4-ureido-1H-pyrazole-3-carboxylic acid amide]
